Experiments:
[1] = system: mouse long-term hematopoietic stem cells; experiment: Combination test with UM171 on mouse long-term hematopoietic stem cells; format: cell-based; settings: n=2
Experimental: The cells after classification were seeded in a 96-well plate. A cell culture medium was prepared by adding Stem Cell Factor (SCF, manufactured by PeproTech, Inc.) and Thrombopoietin (TPO, manufactured by PeproTech, Inc.) to StemSpan SFEM culture medium (manufactured by […] Technologies Inc.) and added in advance to a cell culture 96-well plate (manufactured by BD Biosciences) at 100 μL/well, and the cells sorted with the FACS Aria II cell sorter (BD Biosciences) were then seeded at 10 cells/well.
The test compounds each in the form of 10 mM DMSO solution were diluted with the cell culture medium to a final concentration of 1 μM, and added to the cells seeded after classification through medium exchange to a final volume of 200 μL/well. Thereafter, the cells were cultured in a CO2 incubator under conditions of 37° C. and 5% CO2 for 1 week.
After culture, the cells were stained with the antibodies for the surface markers c-Kit and Sca-1, Ter-119, B220, CD3, CD4, CD8a, Gr-1, and CD11b, and the ratio and post-growth cell count of a KLS fraction (c-Kit^+, Lin^−, Sca-1^+) or an mCherry-positive fraction given with use of a FACS Aria II cell sorter were analyzed by using FlowJo (BD Biosciences). The mCherry-positive fraction is a cell fraction expressing the Hoxb5 gene, and the KLS fraction is a cell fraction being c-Kit-positive, Lin-negative, and Sca-1-positive, and includes hematopoietic stem cells and multipotent progenitor cells as main components.
A DMSO solution of artemether was adjusted with the cell culture medium to three final concentrations (0.1 μM, 1 μM, 10 μM), and a DMSO solution of UM171 was adjusted with the cell culture medium to four final concentrations (0.1 μM, 0.3 μM, 1 μM, 3 μM), and cell culture was performed at n=2 by the same method as in Example 1. The cell culture and evaluation criteria were the same as those in Example 2.

[2] = system: mouse HoxB5; experiment: Confirmation test by gene expression of mouse HoxB5 (qRT-PCR); format: cell-based; settings: for mGAPDH Ct value / mHoxB5 Ct value: day 7 of culture; for Ct value difference: mHoxB5 minus mGAPDH
Experimental: Cells cultured in the presence of artemether were evaluated by gene expression of mouse HoxB5. Cells were cultured in the same manner as in Example 3, and the cells after culture were treated with a Single Cell to CT qRT-PCR kit (manufactured by Life Technologies) according to the instruction of the kit. The cells treated were washed once with PBS, a cell-lysing solution was then added thereto, and the resultant was subjected to RNA extraction followed by reverse transcription reaction for cDNA synthesis, amplified through Taqman Gene Expression Assay in 14 cycles, and diluted with 1×TE buffer (pH 8.0). Real-time PCR was performed with the following Taqman probes at 95° C. for 3 seconds and at 60° C. for 30 seconds in 40 cycles to amplify the sample (HoxbB5: Mm00657672 (manufactured by Thermo Fisher Scientific), Gapdh: Mm99999915-g1 (manufactured by Thermo Fisher Scientific)). All the thermal cycler operations were analyzed by using a QuantStudio 6 (manufactured by Applied Biosystems) (Table 5).
From Table 5, we were able to confirm, by allowing the compound to act, the expression of the long-term hematopoietic stem cell marker HoxB5 in cells on day 7 of culture under culture conditions such that the mouse HoxB5 Ct value was 30 or less and the ACT value was 16 or less.

[3] = artemether 0.1 μM + UM171 0.1 μM
[4] = artemether 0.1 μM + UM171 0.3 μM
[5] = artemether 10 μM + UM171 0.1 μM
[6] = artemether 10 μM + UM171 0.3 μM

## CO[C@H]1O[C@@H]2O[C@@]3(C)CC[C@H]4[C@H](C)CC[C@@H]([C@H]1C)[C@@]24OO3 [Example 1-30, artemether, reference compound]
[1]; [3]
  KLS-positive rate: 52.0%
  Viable cell count: 430.0 cell
  mCherry-positive rate: 51.8%
[1]; [4]
  KLS-positive rate: 42.0%
  Viable cell count: 257.0 cell
  mCherry-positive rate: 78.1%
[1]; artemether 0.1 μM + UM171 1 μM
  KLS-positive rate: 93.4%
  Viable cell count: 28.5 cell
  mCherry-positive rate: 100.0%
[1]; artemether 0.1 μM + UM171 3 μM
  KLS-positive rate: 60.6%
  Viable cell count: 101.5 cell
  mCherry-positive rate: 82.4%
[1]; artemether 1 μM + UM171 0.1 μM
  KLS-positive rate: 33.1%
  Viable cell count: 269.0 cell
  mCherry-positive rate: 96.3%
[1]; artemether 1 μM + UM171 0.3 μM
  KLS-positive rate: 48.6%
  Viable cell count: 151.0 cell
  mCherry-positive rate: 99.1%
[1]; artemether 1 μM + UM171 1 μM
  KLS-positive rate: 93.7%
  Viable cell count: 23.0 cell
  mCherry-positive rate: 100.0%
[1]; artemether 1 μM + UM171 3 μM
  KLS-positive rate: 67.3%
  Viable cell count: 23.5 cell
  mCherry-positive rate: 100.0%
[1]; [5]
  KLS-positive rate: 56.7%
  Viable cell count: 122.0 cell
  mCherry-positive rate: 99.6%
[1]; [6]
  KLS-positive rate: 91.1%
  Viable cell count: 38.0 cell
  mCherry-positive rate: 100.0%
[1]; artemether 10 μM + UM171 1 μM
  KLS-positive rate: 95.9%
  Viable cell count: 9.5 cell
  mCherry-positive rate: 100.0%
[1]; artemether 10 μM + UM171 3 μM
  KLS-positive rate: 94.7%
  Viable cell count: 19.0 cell
  mCherry-positive rate: 96.9%
[2]; compound 0.03 μM
  mGAPDH Ct value: 13.12
  mHoxB5 Ct value: 30.72
  Ct value difference: 17.60
[2]; compound 0.1 μM
  mGAPDH Ct value: 13.23
  mHoxB5 Ct value: 30.57
  Ct value difference: 17.34
[2]; compound 0.3 μM
  mGAPDH Ct value: 14.47
  mHoxB5 Ct value: 28.79
  Ct value difference: 14.31
[2]; compound 1 μM
  mGAPDH Ct value: 13.02
  mHoxB5 Ct value: 31.18
  Ct value difference: 18.16
[2]; compound 3 μM
  mGAPDH Ct value: 13.90
  mHoxB5 Ct value: 28.99
  Ct value difference: 15.10
[2]; compound 10 μM
  mGAPDH Ct value: 17.68
  mHoxB5 Ct value: 27.62
  Ct value difference: 9.94

Reference: patent publication US20230094952A1, “Method for Culturing Hematopoietic Stem Cells” (Sumitomo Pharma Co., Ltd., priority 2019, published 2023)
